From patent EP4768499A1, “MACROCYCLIC PEPTIDE COMPOUND HAVING CELL MEMBRANE PERMEABILITY AND METABOLIC STABILITY, AND LIBRARY CONTAINING SAME” (Chugai Seiyaku Kabushiki Kaisha, priority 2023, dated 2025)
Starred links: 1 amine or outer side, 2 acyl side, 3 side chain; linkers in the order of their positions; H or OH if unused. Positions of bridges follow the written chain, without caps; N, C: chain ends. Non-standard residues stand in square brackets, D forms with d. Residues, ends and D or L forms follow the SMILES beside them. *: point of attachment. NMeF = CN[C@@H](Cc1ccccc1)C(=O)O; NMeGABA = CN(CCCC(=O)[*:2])[*:1]; NMeI = CC[C@H](C)[C@H](NC)C(=O)O; NMeT = CN[C@H](C(=O)O)[C@@H](C)O; hPhe = N[C@@H](CCc1ccccc1)C(=O)O; NMeβAla = CN(CCC(=O)[*:2])[*:1]; NMeD = CN[C@@H](CC(=O)O)C(=O)O; NMeL = CN[C@@H](CC(C)C)C(=O)O; NMeV = CN[C@H](C(=O)O)C(C)C; d(β3hA) = C[C@@H](N)CC(=O)O; NMeAbu = CC[C@H](NC)C(=O)O; NMeA = CN[C@@H](C)C(=O)O; Piperidide = C1CCN(*)CC1; Abu = CC[C@H](N)C(=O)O; NBuGly = CCCCNCC(=O)O; βAla = NCCC(=O)O; Sar = CNCC(=O)O; tBu = CC(C)(C)*

Experiments:
[1] = Metabolic stability test: liver microsomal stability assay; format: in vitro ADME, mouse; details: mouse liver microsomes 0.5 mg protein/mL, compound 1 µM; for microsomal CLint at 1 µM: male, pH 7.4, presence of NADPH, read-out: Mouse Hepatic Microsome CLh,int NADPH(+); for Mouse Hepatic Microsome CLh,int NADPH(-): absence of NADPH
[2] = Membrane permeability test using Caco-2 cells with preincubation; format: in vitro ADME; details: Caco-2; preincubation 20 to 24 hours; Apical FaSSIF/HBSS pH 6.0, Basal HBSS 4% BSA pH 7.4; 180 minutes; read-out: Caco2 Papp
Caco-2 cells = assay: as above; format: in vitro ADME; details: Caco-2 cells, preincubation 20 to 24 hours; apical FaSSIF/HBSS 1% DMSO pH 6.0, basal HBSS 4% BSA pH 7.4; basal sample at 180 minutes

SMILES	microsomal CLint at 1 µM [1] [µL/min/mg]	Mouse Hepatic Microsome CLh,int NADPH(-) [1] [µL/min/mg Protein]	Papp A→B [2] [×10⁻⁶ cm/s]	Caco2 Papp (10^-6 cm/sec) (Caco-2 cells)
CC[C@@H]1NC(=O)[C@H](CC(C)C)N(C)C(=O)[C@H](Cc2ccccc2)N(C)C(=O)[C@H](CC(C)C)N(C)C(=O)[C@H](C)NC(=O)C[C@@H](C(=O)N2CCCCC2)NC(=O)[C@H](C(C)C)N(C)C(=O)[C@@H]2CCCN2C(=O)CCN(C)C(=O)[C@H](CC(C)C)NC(=O)[C@H]([C@@H](C)CC)N(C)C(=O)[C@H]([C@@H](C)O)NC(=O)[C@H](Cc2ccccc2)N(C)C1=O [pd112] (A[NMeL][NMeF][NMeL][Abu][NMeF]T[NMeI]L[NMeβAla]P[NMeV]D-Piperidide; lactam N-13)	30.5	21.2	0.35	0.35 10^-6 cm/sec
CC[C@H]1C(=O)N(C)CC(=O)N[C@@H]([C@@H](C)O)C(=O)N(C)[C@@H](CC(C)C)C(=O)N[C@@H](CC(C)C)C(=O)N(C)[C@@H](Cc2ccccc2)C(=O)N(C)[C@@H](C(C)C)C(=O)N2CCC[C@H]2C(=O)N(C)[C@@H](C)C(=O)N(C)[C@@H](C(C)C)C(=O)N[C@H](C(=O)N2CCCCC2)CC(=O)N(C)[C@@H](CC(C)C)C(=O)N(C)[C@@H](Cc2ccccc2)C(=O)N1C [pd126] ([NMeL][NMeF][NMeAbu][Sar]T[NMeL]L[NMeF][NMeV]P[NMeA][NMeV]D-Piperidide; lactam N-13)	23.3	18.2	0.88	0.88 10^-6 cm/sec
CC[C@@H]1NC(=O)[C@H](CC(C)C)N(C)C(=O)[C@H](C)NC(=O)[C@@H]2CCCN2C(=O)[C@H]([C@@H](C)CC)NC(=O)[C@H](CC(C)C)N(C)C(=O)[C@H](CCc2ccccc2)NC(=O)CCCN(C)C(=O)C[C@@H](C(=O)N2CCCCC2)NC(=O)[C@H](CC(C)C)N(C)C(=O)[C@H]([C@@H](C)CC)NC(=O)[C@H](C)N(C)C(=O)[C@H]([C@@H](C)O)NC(=O)[C@H](Cc2ccccc2)N(C)C1=O [pd023] ([NMeGABA][hPhe][NMeL]IPA[NMeL][Abu][NMeF]T[NMeA]I[NMeL]D-Piperidide; lactam N-14)	43.3	26.2	0.03	0.03 10^-6 cm/sec
CC[C@H](C)[C@H]1C(=O)N[C@@H]([C@@H](C)O)C(=O)N(C)CC(=O)N(C)[C@@H](CC(C)C)C(=O)N[C@@H](CC(C)C)C(=O)N[C@H](C(=O)N2CCCCC2)CC(=O)N(C)[C@@H](C)C(=O)N[C@@H](CC(C)C)C(=O)N(C)[C@@H](CC(C)C)C(=O)N(C)CCC(=O)N(C)[C@@H](Cc2ccccc2)C(=O)NCCC(=O)N(C)[C@@H](Cc2ccccc2)C(=O)N1C [pd113] ([NMeA]L[NMeL][NMeβAla][NMeF][βAla][NMeF][NMeI]T[Sar][NMeL]LD-Piperidide; lactam N-13)	24.4	16.4	0.2	0.20 10^-6 cm/sec
CC[C@H](C)[C@@H]1NC(=O)[C@H](C)N(C)C(=O)CCCN(C)C(=O)C[C@@H](C)NC(=O)[C@H](C(C)C)N(C)C(=O)[C@H](CC(C)C)N(C)C(=O)[C@H](C)N(C)C(=O)[C@H]([C@@H](C)O)N(C)C(=O)[C@H](CCc2ccccc2)NC(=O)[C@H](C(C)C)NC(=O)[C@H](Cc2ccccc2)N(C)C(=O)[C@H](CC)N(C)C(=O)[C@H](C)N(C)C(=O)[C@H](C(C)C)N(C)C1=O [pd059] (cyclo(I[NMeV][NMeA][NMeAbu][NMeF]V[hPhe][NMeT][NMeA][NMeL][NMeV][d(β3hA)][NMeGABA][NMeA]))	12.7	18.6	0.52	0.52 10^-6 cm/sec
CC[C@H](C)[C@H]1C(=O)N2CCC[C@H]2C(=O)N(C)[C@@H](C(C)C)C(=O)N(C)[C@@H](Cc2ccccc2)C(=O)N(C)[C@@H](C)C(=O)N(C)[C@@H](CC(C)C)C(=O)N[C@@H]([C@@H](C)O)C(=O)N(C)[C@@H](C)C(=O)N[C@@H](CCc2ccccc2)C(=O)N(C)[C@@H](CC(C)C)C(=O)N[C@H](C(=O)N2CCCCC2)CC(=O)N(C)CCCC(=O)N(C)[C@@H](CC(C)C)C(=O)N1C [pd124] ([NMeGABA][NMeL][NMeI]P[NMeV][NMeF][NMeA][NMeL]T[NMeA][hPhe][NMeL]D-Piperidide; lactam N-13)	16.9	16.6	0.13	0.13 10^-6 cm/sec
CC(C)C[C@@H]1NC(=O)[C@H](CC(C)C)N(C)C(=O)[C@H](C(C)C)N(C)C(=O)[C@H](CCc2ccccc2)NC(=O)[C@H]([C@@H](C)O)N(C)C(=O)[C@@H](C(C)C)NC(=O)C[C@@H](C(=O)N2CCCCC2)NC(=O)[C@H](C(C)C)N(C)C(=O)[C@H](CC(C)C)NC(=O)[C@H](Cc2ccccc2)N(C)C(=O)[C@@H]2CCCN2C(=O)[C@H](CC(C)C)N(C)C(=O)CN(C)C1=O [pd107] ([dV][NMeT][hPhe][NMeV][NMeL]L[Sar][NMeL]P[NMeF]L[NMeV]D-Piperidide; lactam N-13)	36.3	31.5	0.81	0.81 10^-6 cm/sec
CC[C@@H]1NC(=O)[C@H](CC(C)C)N(C)C(=O)[C@H]([C@@H](C)O)NC(=O)[C@H](C(C)C)N(C)C(=O)[C@H](C)NC(=O)[C@H](Cc2ccccc2)N(C)C(=O)[C@@H](C(C)C)NC(=O)C[C@@H](C(=O)N2CCCCC2)N(C)C(=O)CN(C)C(=O)[C@H](Cc2ccccc2)N(C)C(=O)[C@H](C)N(C)C(=O)[C@H](COC(C)(C)C)NC(=O)[C@H](CC(C)C)N(C)C(=O)CN(C)C1=O [pd090] ([dV][NMeF]A[NMeV]T[NMeL][Abu][Sar][NMeL]S(tBu)[NMeA][NMeF][Sar][NMeD]-Piperidide; lactam N-14)	45	23.9	< 0.12	<0.12 10^-6 cm/sec
CC[C@H](C)[C@@H]1NC(=O)[C@@H]2CCCN2C(=O)[C@H](CC(C)C)N(C)C(=O)[C@H](CC(C)C)NC(=O)[C@H]([C@@H](C)CC)N(C)C(=O)[C@H]([C@@H](C)O)NC(=O)[C@H](Cc2ccccc2)N(C)C(=O)[C@H](CC)N(C)C(=O)[C@H](Cc2ccccc2)N(C)C(=O)[C@H](C(C)C)NC(=O)[C@H](CC(C)C)N(C)C(=O)[C@H](C)N(C)C(=O)C[C@@H](C(=O)N2CCCCC2)NC(=O)[C@H](C(C)C)N(C)C1=O [pd043] ([NMeA][NMeL]V[NMeF][NMeAbu][NMeF]T[NMeI]L[NMeL]PI[NMeV]D-Piperidide; lactam N-14)	40.7	34.8	0.16	0.16 10^-6 cm/sec
CC[C@@H]1NC(=O)[C@H](Cc2ccccc2)N(C)C(=O)[C@H](COC(C)(C)C)NC(=O)[C@H](CC(C)C)N(C)C(=O)[C@H](C(C)C)NC(=O)CN(C)C(=O)[C@H]([C@@H](C)O)NC(=O)[C@H](CC(C)C)N(C)C(=O)[C@H](C(C)C)NC(=O)[C@H](Cc2ccccc2)N(C)C(=O)[C@H](C)N(C)C(=O)[C@@H](C)NC(=O)C[C@@H](C)NC(=O)[C@H](C(C)C)N(C)C1=O [pd008] (cyclo([Abu][NMeV][d(β3hA)][dA][NMeA][NMeF]V[NMeL]T[Sar]V[NMeL]S(tBu)[NMeF]))	13.4	11.8	0.04	0.04 10^-6 cm/sec
CC[C@H](C)[C@@H]1NC(=O)[C@H](C)NC(=O)[C@H](C(C)C)N(C)C(=O)[C@H](COC(C)(C)C)NC(=O)[C@H](C)N(C)C(=O)C[C@@H](C(=O)N2CCCCC2)NC(=O)[C@H](C(C)C)NC(=O)[C@H](Cc2ccccc2)N(C)C(=O)[C@H](CC(C)C)N(C)C(=O)[C@H]([C@@H](C)O)NC(=O)[C@H](CC)N(C)C(=O)[C@H](Cc2ccccc2)N(C)C(=O)[C@H](C)NC(=O)[C@@H]2CCCN2C1=O [pd025] ([NMeA]S(tBu)[NMeV]AIPA[NMeF][NMeAbu]T[NMeL][NMeF]VD-Piperidide; lactam N-14)	14.8	15.8	0.05	0.05 10^-6 cm/sec
CC[C@@H]1NC(=O)[C@H](C(C)C)N(C)C(=O)[C@H](CC(C)C)NC(=O)[C@H](CC(C)C)N(C)C(=O)[C@H]([C@@H](C)O)NC(=O)CN(C)C(=O)[C@H]([C@@H](C)CC)NC(=O)[C@H](Cc2ccccc2)N(C)C(=O)[C@H](CC(C)C)N(C)C(=O)C[C@@H](C(=O)N2CCCCC2)NC(=O)[C@H](Cc2ccccc2)N(C)C(=O)[C@H](COC(C)(C)C)NC(=O)[C@@H]2CCCN2C(=O)[C@H]([C@@H](C)CC)NC1=O [pd031] ([NMeL][NMeF]I[Sar]T[NMeL]L[NMeV][Abu]IPS(tBu)[NMeF]D-Piperidide; lactam N-14)	40.3	32.3	0.04	0.04 10^-6 cm/sec
CCCCN1CC(=O)N(C)[C@@H](CC)C(=O)N[C@H](C(=O)N2CCCCC2)CC(=O)N(C)[C@@H](C)C(=O)N[C@@H]([C@@H](C)CC)C(=O)N(C)[C@@H](Cc2ccccc2)C(=O)N(C)[C@@H](CC(C)C)C(=O)N[C@@H](C(C)C)C(=O)N(C)CC(=O)N[C@@H](CC(C)C)C(=O)N(C)[C@@H](Cc2ccccc2)C(=O)N(C)[C@@H](C)C(=O)N[C@@H](CC(C)C)C1=O [pd099] ([NMeA]I[NMeF][NMeL]V[Sar]L[NMeF][NMeA]L[NBuGly][NMeAbu]D-Piperidide; lactam N-13)	30.3	27.8	0.41	0.41 10^-6 cm/sec
